Measured values published in ChEMBL document CHEMBL3045576, “Azadirachtin avoidance by larvae and adult females of the tomato leafminer Tuta absoluta” (2013).
Calls of active or inactive are those of the source. No cut-off for these calls is given here.

Tests used:
[1] = test system: Tuta absoluta; experiment: Walking avoidance activity against second-instar larval stage of Tuta absoluta Vicosa infested compound-pretreated filter paper assessed as effect on walking time at LC90 concentration measured for 10 min; type: functional, organism-based
[2] = test system: Tuta absoluta; experiment: Egg-laying avoidance activity against non-sexed adult stage of Tuta absoluta Araguari in compound-pretreated tomato leaves assessed as decrease in number of eggs laid at LC10 to LC90 concentration measured for 2 days by no-choice test; type: functional, organism-based
[3] = test system: Tuta absoluta; experiment: Egg-laying avoidance activity against non-sexed adult stage of Tuta absoluta Vicosa in compound-pretreated tomato leaves assessed as decrease in number of eggs laid at LC10 to LC90 concentration measured for 2 days by no-choice test; type: functional, organism-based
[4] = test system: Tuta absoluta; experiment: Egg-laying avoidance activity against non-sexed adult stage of Tuta absoluta Araguari in compound-pretreated tomato leaves assessed as decrease in number of eggs laid at equal to and greater than LC50 concentration measured for 2 days by free-choice test; type: functional, organism-based
[5] = test system: Tuta absoluta; experiment: Egg-laying avoidance activity against non-sexed adult stage of Tuta absoluta Vicosa in compound-pretreated tomato leaves assessed as decrease in number of eggs laid measured for 2 days by free-choice test; type: functional, organism-based
[6] = test system: Tuta absoluta; experiment: Resistance ratio of LC90 for Tuta absoluta Vicosa larvae to LC90 for Tuta absoluta Araguari larvae; type: functional
[7] = test system: Tuta absoluta; experiment: Resistance ratio of LC50 for Tuta absoluta Vicosa larvae to LC50 for Tuta absoluta Araguari larvae; type: functional
[8] = test system: Tuta absoluta; experiment: Resistance ratio of LC10 for Tuta absoluta Vicosa larvae to LC10 for Tuta absoluta Araguari larvae; type: functional
[9] = test system: Tuta absoluta; experiment: Insecticidal activity against Tuta absoluta Araguari larvae in compound-pre-treated tomato leaves assessed as mortality after 144 hr; type: functional
[10] = test system: Tuta absoluta; experiment: Insecticidal activity against Tuta absoluta Vicosa larvae in compound-pre-treated tomato leaves assessed as mortality after 144 hr; type: functional
[11] = test system: Tuta absoluta; experiment: Insecticidal activity against second-instar larval stage of Tuta absoluta in tomato leaves assessed as delay in larval development at 27 mg ai/L incubated for 5 s prior to larval infestation after 9 days; type: functional, organism-based
[12] = test system: Tuta absoluta; experiment: Insecticidal activity against second-instar larval stage of Tuta absoluta in tomato leaves assessed as survival rate at 27 mg ai/L incubated for 5 s prior to larval infestation after 9 days (reference value: >60%); type: functional; conditions: 216 h
[13] = test system: Tuta absoluta; experiment: Insecticidal activity against second-instar larval stage of Tuta absoluta in tomato leaves assessed as survival rate at 1.7 mg ai/L incubated for 5 s prior to larval infestation after 9 days (reference value: >60%); type: functional; conditions: 216 h
[14] = test system: Tuta absoluta; experiment: Effect on leaf mining activity of Tuta absoluta Vicosa second-instar larvae in compound-pretreated tomato leaves assessed as length of time required to mine the leaf at LC10 to LC90 concentration; type: functional
[15] = test system: Tuta absoluta; experiment: Effect on leaf mining activity of Tuta absoluta Araguari second-instar larvae in compound-pretreated tomato leaves assessed as length of time required to mine the leaf at LC10 to LC90 concentration; type: functional
[16] = test system: Tuta absoluta; experiment: Walking avoidance activity against second-instar larval stage of Tuta absoluta Araguari in compound-pretreated tomato leaves assessed as decrease in walking time at LC10 concentration measured after 6 hr; type: functional, organism-based
[17] = test system: Tuta absoluta; experiment: Walking avoidance activity against second-instar larval stage of Tuta absoluta Vicosa in compound-pretreated tomato leaves assessed as decrease in walking time at LC10 concentration measured after 6 hr; type: functional, organism-based
[18] = test system: Tuta absoluta; experiment: Walking avoidance activity against second-instar larval stage of Tuta absoluta Araguari in compound-pretreated tomato leaves assessed as decrease in walking time at LC50 to LC90 concentration measured after 6 hr; type: functional, organism-based
[19] = test system: Tuta absoluta; experiment: Walking avoidance activity against second-instar larval stage of Tuta absoluta Vicosa in compound-pretreated tomato leaves assessed as decrease in walking time at LC50 to LC90 concentration measured after 6 hr; type: functional, organism-based
[20] = test system: Tuta absoluta; experiment: Walking avoidance activity against fourth-instar larval stage of Tuta absoluta Araguari infested compound-pretreated filter paper assessed as effect on walking time at LC90 concentration measured for 10 min; type: functional, organism-based
[21] = test system: Tuta absoluta; experiment: Walking avoidance activity against second-instar larval stage of Tuta absoluta Araguari infested compound-pretreated filter paper assessed as effect on walking time at LC90 concentration measured for 10 min; type: functional, organism-based
[22] = test system: Tuta absoluta; experiment: Walking avoidance activity against fourth-instar larval stage of Tuta absoluta Vicosa infested compound-pretreated filter paper assessed as effect on walking time at LC90 concentration measured for 10 min; type: functional, organism-based

C/C=C(\C)C(=O)O[C@H]1C[C@@H](OC(C)=O)[C@@]2(C(=O)OC)CO[C@H]3[C@@H](O)[C@@](C)([C@]45O[C@@]4(C)[C@@H]4C[C@H]5O[C@@H]5OC=C[C@@]54O)[C@H]4[C@]1(CO[C@]4(O)C(=O)OC)[C@@H]32 [AZADIRACHTIN A]
Activity [1]: inactive | inhibition [2]: inactive | inhibition [3]: inactive | inhibition [4]: Active | inhibition [5]: Dose-dependent effect | Ratio [6]: 1.96 | Ratio [7]: 1.8 | Ratio [8]: 1.65 | LC10 [9]: 0.97 mgAi/L | LC50 [9]: 5.62 mgAi/L | LC90 [9]: 32.71 mgAi/L | LC10 [10]: 1.59 mgAi/L | LC50 [10]: 10.09 mgAi/L | LC90 [10]: 64.06 mgAi/L | Activity [11]: Active | survival at 27 µg/mL [12]: < 4% | survival at 1.7 µg/mL [13]: 25% | Time [14]: 33.56 min | Time [15]: 38.72 min | inhibition [16]: inactive | inhibition [17]: inactive | inhibition [18]: Active | inhibition [19]: Active | Activity [20]: inactive | Activity [21]: inactive | Activity [22]: inactive
